Test results from ChEMBL document CHEMBL1201862, “PubChem BioAssay data set” (2004).
Calls of active or inactive are those of the source. Rule as the data show it, for most assays here: actives have a measured EC50 and inactives only a lower limit.

Experiments:
Cytochrome P450 2D6 = Cytochrome P450 2D6 (Homo sapiens, UniProt P10635);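 also: CYP2D6 member of a cytochrome P450 panel assay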
[1] = inhibitors of intracellular T. cruzi replication, confirmation, NIH3T3 host cells, beta-gal luminescence (AID 2044); assay type: functional, cell-based;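 also: intracellular parasites grown in NIH/3T3 mouse fibroblasts as host cells; luminescent beta-galactosidase reporter signal from transgenic T. cruzi replicating inside host cells; inhibitors lower the luminescence signal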
[2] = cytotoxicity toward NIH3T3 fibroblasts, dose response, counter-screen, cell-based, ATP luminescence, mouse fibroblasts (AID 2010); assay type: functional;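 also: cells exposed to compound for about 90 hours before reading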

Sequence of Cytochrome P450 2D6 (P10635 whole entry): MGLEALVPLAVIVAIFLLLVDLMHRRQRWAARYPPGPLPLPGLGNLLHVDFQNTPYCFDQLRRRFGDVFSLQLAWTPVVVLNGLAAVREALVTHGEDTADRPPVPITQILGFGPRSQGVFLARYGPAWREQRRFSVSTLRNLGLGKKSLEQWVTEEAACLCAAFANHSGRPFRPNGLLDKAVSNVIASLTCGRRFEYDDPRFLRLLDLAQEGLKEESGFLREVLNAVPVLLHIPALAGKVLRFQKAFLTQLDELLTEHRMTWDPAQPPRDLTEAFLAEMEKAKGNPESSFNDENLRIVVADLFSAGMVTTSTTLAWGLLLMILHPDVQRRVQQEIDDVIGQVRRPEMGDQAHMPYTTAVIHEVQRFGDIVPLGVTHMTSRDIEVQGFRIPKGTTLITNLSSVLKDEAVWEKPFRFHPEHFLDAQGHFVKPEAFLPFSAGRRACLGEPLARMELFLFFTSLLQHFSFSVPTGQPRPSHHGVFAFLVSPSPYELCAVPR

## COc1ccc([C@@H](C)c2cc3c(cc2O)OCO3)cc1
Cytochrome P450 2D6
  AC50: 3.98 µM (inconclusive)

## Cc1ccc(-[n+]2cc(=O)o[nH]2)cc1
Cytochrome P450 2D6
  AC50: 1.58 µM (inconclusive)

## Cc1ccc(S(=O)(=O)CCC(=O)c2cccc([N+](=O)[O-])c2)cc1
[1]
  EC50: 2.47 µM (active)
[2]
  EC50: > 60 µM (not active)

## CCOC(=O)c1c(NC(=O)CSc2nnnn2C)sc(C)c1C
Cytochrome P450 2D6
  AC50: 25.1 µM (inconclusive)

## COc1ccc2[nH]c(C)c(CCN(Cc3cccs3)C(S)=Nc3cccc(F)c3)c2c1
[1]
  EC50: 3.35 µM (active)
[2]
  EC50: > 60 µM (not active)

## O=C1COC(c2ccccc2O)=NN1CCCN1CCCC1
Cytochrome P450 2D6
  AC50: 3.16 µM (inconclusive)

## C=C(C)COc1ccc(-c2ncncc2-c2ccccc2OC)c(O)c1
[1]
  EC50: 0.544 µM (active)
[2]
  EC50: > 60 µM (not active)

## COc1ccccc1CNc1ncncc1-c1cccnc1
Cytochrome P450 2D6
  AC50: 20 µM (inconclusive)

## COC(=O)[C@@]1(Cc2ccccc2)[C@H]2c3cc(C(=O)N(C)C)n(Cc4ccsc4Br)c3C[C@H]2CN1C(=O)c1ccccc1
Cytochrome P450 2D6
  AC50: 31.6 µM (inconclusive)

## Cc1ccccc1-n1nc2c(c1NC(=O)c1ccc(S(=O)(=O)N(C)C)cc1)CSC2
Cytochrome P450 2D6
  AC50: 28.2 µM (inconclusive)

## Cc1ccccc1-c1cncnc1Nc1ccc(F)cc1
Cytochrome P450 2D6
  AC50: 39.8 µM (inconclusive)

## CC(C)c1ccc(C2C3=C(CC(C)(C)CC3=O)N=C3C2=C(O)c2ccccc23)cc1 (configuration not stated)
[1]
  EC50: 1.68 µM (active)
[2]
  EC50: > 60 µM (not active)

## N#C/C(=C(/O)c1ccc([N+](=O)[O-])s1)c1nc2ccccc2[nH]1
[1]
  EC50: 0.233 µM (active)
[2]
  EC50: 4.89 µM (active)

## Cc1ccc(-c2nn(-c3cc(N4CCNCC4)ccc3[N+](=O)[O-])c(=O)c3ccccc23)cc1
[1]
  EC50: 2.04 µM (active)
[2]
  EC50: > 60 µM (inconclusive)

## CN1CCN(/N=C/c2ccc(-c3ccc([N+](=O)[O-])cc3Cl)o2)CC1
[1]
  EC50: 0.474 µM (active)
[2]
  EC50: > 60 µM (inconclusive)

## COc1ccccc1/N=C/C=C1OC(C)(C)C(C)(C)O1
[1]
  EC50: 3.65 µM (active)
[2]
  EC50: > 60 µM (not active)

## CCOC(=O)/C(=N\Nc1ccccc1Cl)N1CCN(c2ccccc2OC)CC1
[1]
  EC50: 1.18 µM (active)
[2]
  EC50: 33.7 µM (active)

## CCCN1CCC[C@@H]2Cc3nc(N)ncc3C[C@H]21 [QUINELORANE]
Cytochrome P450 2D6
  AC50: 25.1 µM (inconclusive)
